From patent US20240239804A1, “FUROINDAZOLE DERIVATIVES AS ANTAGONISTS OR INHIBITORS OF GPR84” (Bayer Aktiengesellschaft, priority 2021, published 2024)
Counter-ions that a name gives are not always drawn.

The compounds below were run against T1, human GPR84 receptor (Homo sapiens, UniProt Q9NQS5) (assay: cAMP HTRF assay for identification of cellular GPR84 antagonists). Conditions: CHO-K1 cells stably expressing human GPR84; Forskolin plus agonist 6-OAU; cAMP HTRF readout; average or median values.
T1 construct: frozen aliquots prepared by acCELLerate; host or cells: CHO-K1
T1 sequence (Q9NQS5 whole entry): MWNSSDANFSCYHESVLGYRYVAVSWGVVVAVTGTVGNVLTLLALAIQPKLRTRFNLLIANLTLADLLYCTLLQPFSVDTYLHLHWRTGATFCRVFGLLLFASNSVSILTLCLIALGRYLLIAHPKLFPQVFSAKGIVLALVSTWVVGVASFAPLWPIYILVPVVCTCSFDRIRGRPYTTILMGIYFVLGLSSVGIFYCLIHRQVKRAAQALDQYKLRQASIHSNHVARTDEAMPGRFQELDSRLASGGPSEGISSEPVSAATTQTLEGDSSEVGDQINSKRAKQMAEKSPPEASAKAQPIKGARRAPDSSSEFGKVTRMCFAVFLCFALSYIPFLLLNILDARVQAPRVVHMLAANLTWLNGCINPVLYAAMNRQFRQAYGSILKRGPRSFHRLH
Format: cell-based
Description: cAMP HTRF® Assay for Identification of Cellular GPR84 Antagonists
By using a Homogenous Time-Resolved Fluorescence (HTRF®) based assay (#62AM5PEJ, Cisbio, Condolet, France) the inhibition of the Gi-coupled GPR84 receptor can be detected. CHO-K1 cells stably expressing human GPR84 receptor (purchased from DiscoveRx, now Eurofins) were used and treated with Forskolin (F6886, Sigma, Germany) to stimulate membrane adenylyl cyclases and thereby unspecific cAMP formation. Activation of the Gi-coupled GPR84 by a natural or small molecule agonist (e.g. 6-n-octyl aminouracile, inhouse) results in inhibition of cellular cAMP formation which can be released again by antagonists to this receptor. Detection and quantification of cellular cAMP levels in this HTRF assay is achieved by interaction between a fluorescent cAMP tracer (cAMP-d2) and an Eu-cryptate labelled anti-cAMP antibody. Following excitation at 337 nm this pairing allows for the generation of a fluorescence resonance energy transfer (FRET) between the partners and results in FRET induced emissions at 665 nm and 620 nm, the latter representing background signal by Eu-cryptate labelled anti-cAMP antibody. Maximal signal is obtained in the absence of any cellular cAMP (no competition for the binding of the tracer to the antibody). Given the combination of the Gi coupling properties of GPR84 and the competitive nature of the detection system agonist treatment should result in an increase in the HTRF signal due to lowered cAMP levels. Any signal decrease in the presence of Forskolin, agonist and compound are indicative of antagonist mediated abrogation of GPR84 signalling.
For the assay, frozen aliquots of CHO-K1 cells expressing hGPR84 (prepared by acCELLerate, Hamburg, Germany) were thawed and a cell suspension (1.67E+06 cells/mL) in assay media (Ham's F12 Nutrient Mix, Thermo Fisher Scientific, Waltham, USA; 5% fetal calf serum, Biomol, Hamburg, Germany) containing cAMP-d2 (dilution 1:20, supplied with the kit #62AM5PEJ, Cisbio, Condolet, France) was prepared. After recovery of cells for 20 minutes at 37° C., 3 μL/well cell suspension including cAMP-d2 were added to a pre-dispensed assay plate (Greiner Bio-One, Kremsmuenster, Austria) containing 50 nl/well test compound in 100% DMSO or 100% DMSO as control. This was followed by a 30 minute incubation step at room temperature. The stimulation time was started by addition of 2 μL/well assay media containing 2.5×EC80 agonist 6-OAU and 2.5×EC90 Forskolin (negative control: 2.5×EC90 Forskolin in assay media) and was continued for 30 minutes at room temperature. The reaction was stopped by addition of 3 μL/well lysis buffer containing cAMP Eu-Cryptate antibody (dilution 1:20) (both supplied with the kit #62AM5PEJ, Cisbio, Condolet, France). To enable complete lysis, plates were incubated for 60 minutes at room temperature before measurement in an HTRF reader, e.g. a PHERAstar (BMG Labtech, Ortenberg, Germany).
From the fluorescence emissions at 665 nm (FRET) and at 620 nm (background signal of Eu-cryptate) the ratio (emission at 665 nm divided by emission at 620 nm×10000) was calculated and the data were normalized (reaction without test compound, only 100% DMSO=0% inhibition; all other assay components except agonist=100% inhibition). For dose response testing on the same microtiter plate, compounds were tested at 11 different concentrations in the range of 20 μM to 0.07 nM (20 μM, 5.7 μM, 1.6 μM, 0.47 μM, 0.13 μM, 38 nM, 11 nM, 3.1 nM, 0.89 nM, 0.25 and 0.07 nM; dilution series prepared before the assay at the level of the 100-fold conc. stock solutions by serial 1:3.5 dilutions in 100% DMSO) in duplicate values for each concentration. IC50 values were calculated by 4-parameter fitting using a commercial software package (Genedata Screener, Basel, Switzerland).
Examples were tested in selected biological assays one or more times. […]

First: Cc1c(C(=O)NC[C@@H]2CCCO2)oc2c1-c1nn(C(C)c3ccccc3F)cc1CC2 (mixture of isomers) [Example 95, 2-[(1RS)-1-(2-fluorophenyl)ethyl]-8-methyl-N-[(2S)-tetrahydrofuran-2-ylmethyl]-4,5-dihydro-2H-furo[2,3-g]indazole-7-carboxamide]
Second: Cc1ccccc1Cn1cc2c(n1)-c1c(oc(C(=O)NC[C@@H]3CCCO3)c1C)CC2 [Example 4, 8-methyl-2-[(2-methylphenyl)methyl]-N-[(2S)-tetrahydrofuran-2-ylmethyl]-4,5-dihydro-2H-furo[2,3-g]indazole-7-carboxamide]
The IC50 of the first is 33-fold higher: 750 nM for the first, 23 nM for the second.

Compared with `Cc1ccccc1Cn1cc2c(n1)-c1c(oc(C(=O)NCC3CCCN3C(=O)OC(C)(C)C)c1C)CC2` (racemic) [Example 6, tert-butyl (2RS)-2-[{{8-methyl-2-[(2-methylphenyl)methyl]-4,5-dihydro-2H-furo[2,3-g]indazole-7-carbonyl}amino)methyl]pyrrolidine-1-carboxylate], `Cc1ccccc1Cn1cc2c(n1)-c1c(oc(C(=O)NCC3CCCN3)c1C)CC2` (racemic) [Example 7, 8-methyl-2-[(2-methylphenyl)methyl]-N-{[(2RS)-pyrrolidin-2-yl]methyl}-4,5-dihydro-2H-furo[2,3-g]indazole-7-carboxamide] is 3.3-fold lower in IC50: 2220 nM for the first, 680 nM for the second.

Going from `Cc1ccccc1Cn1cc2c(n1)-c1c(oc(C(=O)NCC3CCCN3)c1C)CC2` (racemic) [Example 7-3, 8-methyl-2-[(2-methylphenyl)methyl]-N-{[(2RS)-pyrrolidin-2-yl]methyl}-4,5-dihydro-2H-furo[2,3-g]indazole-7-carboxamide hydrochloride (1:1)] to `Cc1ccccc1Cn1cc2c(n1)-c1c(oc(C(=O)NC[C@@H]3COCCO3)c1C)CC2` [Example 5, N-{[(2R)-1,4-dioxan-2-yl]methyl}-8-methyl-2-[(2-methylphenyl)methyl]-4,5-dihydro-2H-furo[2,3-g]indazole-7-carboxamide], the IC50 falls from 1180 nM to 9 nM (130-fold).

First: Cc1c(C(=O)NCC2CCCO2)oc2c1-c1nn(Cc3ccccc3Cl)cc1CC2 (racemic) [Example 9, 2-[(2-chlorophenyl)methyl]-8-methyl-N-[(2RS)-tetrahydrofuran-2-ylmethyl]-4,5-dihydro-2H-furo[2,3-g]indazole-7-carboxamide]
Second: Cc1c(C(=O)NCC2CCCO2)oc2c1-c1nn(Cc3ccc(F)cc3Cl)cc1CC2 (racemic) [Example 92, 2-[(2-chloro-4-fluorophenyl)methyl]-8-methyl-N-[(2RS)-tetrahydrofuran-2-ylmethyl]-4,5-dihydro-2H-furo[2,3-g]indazole-7-carboxamide]
The IC50 of the first is 3.5-fold lower: 46 nM for the first, 160 nM for the second.

`Cc1c(C(=O)NCC2CCCO2)oc2c1-c1nn(Cc3cccc(Cl)c3)cc1CC2` (racemic) [Example 15, 2-[(3-chlorophenyl)methyl]-8-methyl-N-[(2RS)-tetrahydrofuran-2-ylmethyl]-4,5-dihydro-2H-furo[2,3-g]indazole-7-carboxamide] and `Cc1c(C(=O)NCC2CCCO2)oc2c1-c1nn(Cc3ccc(Cl)cc3)cc1CC2` (racemic) [Example 21, 2-[(4-chlorophenyl)methyl]-8-methyl-N-[(2RS)-tetrahydrofuran-2-ylmethyl]-4,5-dihydro-2H-furo[2,3-g]indazole-7-carboxamide] are within 1.5-fold of each other in IC50: 74 nM for the first, 58 nM for the second.

Going from `Cc1ccccc1Cn1cc2c(n1)-c1c(oc(C(=O)NCC3CCCN3)c1C)CC2` (single isomer, unassigned) [Example 7-1] to `Cc1ccccc1Cn1cc2c(n1)-c1c(oc(C(=O)NCc3ccon3)c1C)CC2` [Example 8, 8-methyl-2-[(2-methylphenyl)methyl]-N-[(1,2-oxazol-3-yl)methyl]-4,5-dihydro-2H-furo[2,3-g]indazole-7-carboxamide], the IC50 falls from 720 nM to 240 nM (3-fold). The second is the more potent here.

Compared with `Cc1ccccc1Cn1cc2c(n1)-c1c(oc(C(=O)NCC3CCCN3)c1C)CC2` (single isomer, unassigned) [Example 7-2], `Cc1c(C(=O)NCCN2CCC2)oc2c1-c1nn(Cc3ccccc3Cl)cc1CC2` [Example 14, N-[2-(azetidin-1-yl)ethyl]-2-[(2-chlorophenyl)methyl]-8-methyl-4,5-dihydro-2H-furo[2,3-g]indazole-7-carboxamide] is 1.8-fold higher in IC50: 630 nM for the first, 1150 nM for the second. The first is the more potent here.

Compared with `Cc1c(C(=O)NCC2CCCO2)oc2c1-c1nn(Cc3cccc(Cl)c3)cc1CC2` (single isomer, unassigned) [Example 15-1], `Cc1c(C(=O)NCC2CCCO2)oc2c1-c1nn(Cc3ccc(Cl)cc3)cc1CC2` (single isomer, unassigned) [Example 21-1] is 5.9-fold higher in IC50: 88 nM for the first, 520 nM for the second.

First: Cc1c(C(=O)NCC2CCCO2)oc2c1-c1nn(Cc3cccc(Cl)c3)cc1CC2 (single isomer, unassigned) [Example 15-2]
Second: Cc1c(C(=O)NCC2CCCO2)oc2c1-c1nn(Cc3ccc(Cl)cc3)cc1CC2 (single isomer, unassigned) [Example 21-2]
The IC50 of the first is 6.2-fold higher: 550 nM for the first, 89 nM for the second. The second is the more potent here.

Compared with `Cc1ccc(Cn2cc3c(n2)-c2c(oc(C(=O)NC[C@@H]4CCCO4)c2C)CC3)cc1` [Example 1, 8-methyl-2-[(4-methylphenyl)methyl]-N-[(2S)-tetrahydrofuran-2-ylmethyl]-4,5-dihydro-2H-furo[2,3-g]indazole-7-carboxamide], `Cc1ccc(Cn2cc3c(n2)-c2c(oc(C(=O)NC[C@@H]4COCCO4)c2C)CC3)cc1` [Example 2, N-{[(2R)-1,4-dioxan-2-yl]methyl}-8-methyl-2-[(4-methylphenyl)methyl]-4,5-dihydro-2H-furo[2,3-g]indazole-7-carboxamide] is 2.6-fold lower in IC50: 18 nM for the first, 7 nM for the second. The second is the more potent here.

Going from `Cc1ccc(Cn2cc3c(n2)-c2c(oc(C(=O)NCc4ccon4)c2C)CC3)cc1` [Example 3, 8-methyl-2-[(4-methylphenyl)methyl]-N-[(1,2-oxazol-3-yl)methyl]-4,5-dihydro-2H-furo[2,3-g]indazole-7-carboxamide] to `Cc1ccc(CNC(=O)c2oc3c(c2C)-c2nn(Cc4ccccc4Cl)cc2CC3)cc1` [Example 10, 2-[(2-chlorophenyl)methyl]-8-methyl-N-[(4-methylphenyl)methyl]-4,5-dihydro-2H-furo[2,3-g]indazole-7-carboxamide], the IC50 falls from 140 nM to 42 nM (3.3-fold). The second is the more potent here.

`Cc1c(C(=O)NCCN2CCN(C)CC2)oc2c1-c1nn(Cc3ccccc3Cl)cc1CC2` [Example 11, 2-[(2-chlorophenyl)methyl]-8-methyl-N-[2-(4-methylpiperazin-1-yl)ethyl]-4,5-dihydro-2H-furo[2,3-g]indazole-7-carboxamide] and `Cc1c(C(=O)NCCN2CCCC2)oc2c1-c1nn(Cc3ccccc3Cl)cc1CC2` [Example 12, 2-[(2-chlorophenyl)methyl]-8-methyl-N-[2-(pyrrolidin-1-yl)ethyl]-4,5-dihydro-2H-furo[2,3-g]indazole-7-carboxamide] are within 1.5-fold of each other in IC50: 230 nM for the first, 300 nM for the second.

`Cc1c(C(=O)NCCN2CCCCC2)oc2c1-c1nn(Cc3ccccc3Cl)cc1CC2` [Example 13, 2-[(2-chlorophenyl)methyl]-8-methyl-N-[2-(piperidin-1-yl)ethyl]-4,5-dihydro-2H-furo[2,3-g]indazole-7-carboxamide] and `Cc1c(C(=O)NCCN2CCN(C)CC2)oc2c1-c1nn(Cc3cccc(Cl)c3)cc1CC2` [Example 17, 2-[(3-chlorophenyl)methyl]-8-methyl-N-[2-(4-methylpiperazin-1-yl)ethyl]-4,5-dihydro-2H-furo[2,3-g]indazole-7-carboxamide] are within 1.5-fold of each other in IC50: 360 nM for the first, 320 nM for the second.
